Laboratory results reported in ChEMBL document CHEMBL1221321, “Synthesis and properties of macrolones characterized by two ether bonds in the linker” (Bioorg Med Chem, 2010).
Values after ≈ are worked out from the molar mass of the structure shown.

Assays:
THP-1 = test: Cytotoxicity against human THP1 cells after 24 hrs by MTS assay; type: cell-based; conditions: THP-1, 24 h
HepG2 = test: Cytotoxicity against human HepG2 cells after 24 hrs by MTS assay; type: cell-based; conditions: HepG2, 24 h
Haemophilus influenzae = test: Antibacterial activity against Haemophilus influenzae ATCC 49247 by broth microdilution method; type: functional
Streptococcus pyogenes [1] = test: Antibacterial activity against constitutive MLS resistance Streptococcus pyogenes 166 GR-Micro by broth microdilution method; type: functional
Streptococcus pneumoniae [2] = test: Antibacterial activity against constitutive MLS resistance Streptococcus pneumoniae 58 by broth microdilution method; type: functional
Streptococcus pyogenes [3] = test: Antibacterial activity against efflux-mediated macrolide-resistance Streptococcus pyogenes 2 by broth microdilution method; type: functional
Streptococcus pneumoniae [4] = test: Antibacterial activity against efflux-mediated macrolide-resistance Streptococcus pneumoniae Ci137 by broth microdilution method; type: functional; conditions: read-out: MIC
Staphylococcus aureus [5] = test: Antibacterial activity against efflux-mediated macrolide-resistance Staphylococcus aureus PK1 by broth microdilution method; type: functional
Streptococcus pyogenes [6] = test: Antibacterial activity against inducible resistance to macrolide, licosamide and streptogramin Streptococcus pyogenes 11 by broth microdilution method; type: functional; conditions: read-out: MIC
Streptococcus pneumoniae [7] = test: Antibacterial activity against inducible resistance to macrolide and constitutive resistance to lincosamide Streptococcus pneumoniae 134 GR M by broth microdilution method; type: functional
Staphylococcus aureus [8] = test: Antibacterial activity against inducible resistance to macrolide, licosamide, and streptogramin Staphylococcus aureus 90265/97 by broth microdilution method; type: functional

Compound: CC[C@H]1OC(=O)[C@H](C)[C@@H](O[C@H]2C[C@@](C)(OC)[C@@H](OCCCOCCCc3ccc4c(c3)c(=O)c(C(=O)O)cn4CCN(C)C)[C@H](C)O2)[C@H](C)[C@@H](O[C@@H]2O[C@H](C)C[C@H](N(C)C)[C@H]2O)[C@](C)(O)C[C@@H](C)CN(C)[C@H](C)[C@@H](O)[C@]1(C)O
- IC50 (THP-1): > 50 µM
- IC50 (HepG2): > 50 µM
- MIC (Haemophilus influenzae): 4 µg/mL (≈ 3.61 µM)
- MIC (Streptococcus pyogenes [1]): 1 µg/mL (≈ 0.903 µM)
- MIC (Streptococcus pneumoniae [2]): ≤ 0.125 µg/mL
- MIC (Streptococcus pyogenes [3]): 0.25 µg/mL (≈ 0.226 µM)
- MIC (Streptococcus pneumoniae [4]): ≤ 0.125 µg/mL
- MIC (Staphylococcus aureus [5]): ≤ 0.125 µg/mL
- MIC (Streptococcus pyogenes [6]): ≤ 0.125 µg/mL
- MIC (Streptococcus pneumoniae [7]): 0.25 µg/mL (≈ 0.226 µM)
- MIC (Staphylococcus aureus [8]): ≤ 0.125 µg/mL

Compound: CC[C@H]1OC(=O)[C@H](C)[C@@H](O[C@H]2C[C@@](C)(OC)[C@@H](OCCCOCCCc3ccc4c(c3)c(=O)c(C(=O)O)cn4CCOC)[C@H](C)O2)[C@H](C)[C@@H](O[C@@H]2O[C@H](C)C[C@H](N(C)C)[C@H]2O)[C@](C)(O)C[C@@H](C)CN(C)[C@H](C)[C@@H](O)[C@]1(C)O
- IC50 (THP-1): > 50 µM
- IC50 (HepG2): > 50 µM
- MIC (Haemophilus influenzae): 2 µg/mL (≈ 1.83 µM)
- MIC (Streptococcus pyogenes [1]): ≤ 0.125 µg/mL
- MIC (Streptococcus pneumoniae [2]): ≤ 0.125 µg/mL
- MIC (Streptococcus pyogenes [3]): ≤ 0.125 µg/mL
- MIC (Streptococcus pneumoniae [4]): ≤ 0.125 µg/mL
- MIC (Staphylococcus aureus [5]): ≤ 0.125 µg/mL
- MIC (Streptococcus pyogenes [6]): ≤ 0.125 µg/mL
- MIC (Streptococcus pneumoniae [7]): ≤ 0.125 µg/mL
- MIC (Staphylococcus aureus [8]): ≤ 0.125 µg/mL

Compound: CC[C@H]1OC(=O)[C@H](C)[C@@H](O[C@H]2C[C@@](C)(OC)[C@@H](OCCCOCCCc3ccc4c(c3)c(=O)c(C(=O)O)cn4CC)[C@H](C)O2)[C@H](C)[C@@H](O[C@@H]2O[C@H](C)C[C@H](N(C)C)[C@H]2O)[C@](C)(O)C[C@@H](C)CN(C)[C@H](C)[C@@H](O)[C@]1(C)O
- IC50 (THP-1): > 50 µM
- IC50 (HepG2): > 50 µM
- MIC (Haemophilus influenzae): 1 µg/mL (≈ 0.94 µM)
- MIC (Streptococcus pyogenes [1]): ≤ 0.125 µg/mL
- MIC (Streptococcus pneumoniae [2]): ≤ 0.125 µg/mL
- MIC (Streptococcus pyogenes [3]): ≤ 0.125 µg/mL
- MIC (Streptococcus pneumoniae [4]): ≤ 0.125 µg/mL
- MIC (Staphylococcus aureus [5]): ≤ 0.125 µg/mL
- MIC (Streptococcus pyogenes [6]): ≤ 0.125 µg/mL
- MIC (Streptococcus pneumoniae [7]): ≤ 0.125 µg/mL
- MIC (Staphylococcus aureus [8]): ≤ 0.125 µg/mL
